Experimental data published in patent publication US4431807A, “4-Methyl-5-(unsubstituted and substituted phenoxy)-6-methoxy-8-(aminoalkylamino)quinolines” (priority 1981, dated 1984).
Read-outs that look alike come from different tables or passages of the source.

What was measured:
[1] = Acute oral toxicity, guinea pigs
Plasmodium cynomolgi [2] = experiment: Radical curative (tissue schizonticidal) test, SEATO, P. cynomolgi, rhesus monkey; type: in vivo, Plasmodium cynomolgi (strain B) in Indian rhesus monkeys
Description: Radical Curative Test in Rhesus Monkeys, SEATO Medical Research Laboratory, Bangkok, John Brown/Richard Andre
This test is designed to evaluate the tissue schizonticidal (radical curative) activity of test compounds. Well-conditioned Indian rhesus monkeys of either sex weighing 2-4 Kg are utilized. Plasmodium cynomolgi (strain B) sporozoites are prepared by grinding heavily infected Anopheles dirus salivary glands in 1:1 monkey serum-saline vehicle.
Monkeys are infected by I.V. injection of 10^6 freshly isolated P. cynomolgi sporozoites on day 0. A rapidly rising parasitemia develops after a 7-9 day prepatent period, and administration of the test drug is initiated when the rising parasite count exceeds 5000 per mm^3 (typically day 10-12). Test drugs are administered orally (by nasogastric intubation) once daily for 7 consecutive days in aqueous solution or, if insoluble, in suspension in 0.3% methylcellulose solution. Chloroquine diphosphate (3.1 mg/kg base/kg orally per day) is always administered concurrently with the test drug for 7 days to eliminate blood schizonts. Thus any tissue schizonticidal activity of the test drug will always be apparent even if it lacks blood schizonticidal activity.
A vehicle control monkey and a positive drug control (primaquine) monkey are included in each group of inoculated monkeys.
The effect of the test drug is determined by counting blood parasites. Parasite counts are made daily through day 20, and every two days thereafter. Initially a clearance of blood parasites is observed due to the blood schizonticidal action of chloroquine. […] If there is no relapse within 20 days of the initial clearance of parasitemia, the monkey is splenectomized and its parasitemia followed for an additional 30 days. If there is no relapse within this period, the experiment is terminated and the monkey is considered "cured".
Primaquine diphosphate cures over 90% of monkeys in this test system when administered at a dose of 1.3 mg/kg of salt per day for 7 days ([…]) in combination with chloroquine.
(§1) The antimalarial activity data acquired by the two test procedures described above are listed in Tables 2 and 3 for the compounds of this invention. In Table 4, the most promising compound of the series, compound 1, is compared directly with primaquine together with some additional test data for compound 1 compared to primaquine. In all the work reported herein primaquine is used in the form of the diphosphate salt. The test data are expressed in the form of the number of cures at a given dose level. Extension of life (mean survival time) relative to the controls is noted in the Rane mouse test; if the mean survival time is extended seven or more days, the compound is considered to be active.
The Molar Primaquine Index is useful in the radical curative test (Table II) as a gauge of the efficacy of a candidate drug relative to primaquine.

in vivo [3] = conditions: rat, po, Acute Oral LD50, rats
in vivo [4] = conditions: mouse, po
Plasmodium berghei = conditions: cited from earlier work
[5] = Blood schizonticidal (suppressive) test, Rane mouse test, P. berghei; type: in vivo, Plasmodium berghei KBG 173 in ICR/HA Swiss mice; conditions: mouse, in vivo, sc
Excerpt: Blood Schizonticidal Test (Mouse), University of Miami, Rane (Suppressive)
This system is based on comparisons of responses to test compounds by Plasmodium berghei KBG 173 malaria in mice as expressed in mean survival times and the mean survival times of untreated controls. Thus, compounds noted as active produce increases in the survival times of the treated animals that are significant when compared with the survival times of untreated controls. Since an established disease is less sensitive to treatment than a disease in the early stages of development, treatment is withheld until the parasitemia is relatively high in order to insure a more reliable assay of activity and the selection of appropriate compounds for intensive preclinical studies.
Utilizing young ICR/HA Swiss mice and a standard inoculum of Plasmodium berghei KBG 173, it is possible to produce a uniform disease fatal to 100% of untreated animals within 6 to 8 days with a mean survival time of 6.2 days. Test animals weigh from 18 to 22 grams but weight variations in any given experimental or control group are confined to 2-3 grams. All animals in any given test are approximately of the same age. Animals on test are housed in metal-topped plastic cages, given a standard laboratory diet and water ad libitum.
Test animals receive an intraperitoneal injection of 0.5 ml of 1:100 dilution of heparinized heart's blood with a minimum of 90% parasitized cells (4×10^7 cells), drawn from donor mice infected one week earlier with Plasmodium berghei. The donor stran is maintained by weekly passages in separate groups of mice inoculated with a 0.5 ml of 1:500 dilution of heparinized heart's blood.
Test compounds are administered after dissolution or suspension in peanut oil. A single dose is given subcutaneously 72 hours after the mice are infected with Plasmodium berghei. At this time a 10-15 percent parasitemia has developed; the disease is well established but has not produced sufficient debility to alter the response of the host to toxic effects of the drug on test. Since treatment is withheld for three days to permit the infection to become well established and death occurs in untreated controls within 6-8 days, it is believed that this system presents a candidate compound with the maximum challenge. In order to check factors such as changes in the infectivity of Plasmodium berghei or in the susceptibility of the host or to detect technical errors, a group of infected animals treated with pyrimethamine at dose levels producing definite increases in survival time is included as a positive control in every experiment.
In each experiment test compounds are administered in graded doses. […] However, if an active drug is toxic for the host, its toxicity may become a limiting factor; continued increases in dose levels also increase the toxic effects and may result in the diminution of survival times. Deaths prior to the sixth day, when untreated controls begin to die, are regarded as non-parasitic and become the basis for toxicity evaluations. Treated animals are kept under observation for 60 days. Survivors at the end of this period of time are considered as cured.
An increase of 100% in mean survival time is considered the minimum effective response for a candidate compound. In calculating mean survival time, toxic deaths and 60 day survivors are not included.
as §1, with “Extension of life (mean survival time) relative to the controls is noted in the Rane mouse test; if the mean survival time is extended seven or more days, the compound is considered to be active.” left out

Plasmodium cynomolgi [6] = conditions: cited from earlier work
[7] = tested on: Plasmodium vivax, P. malariae and P. ovale malaria; conditions: cited from earlier work

In the case of `COc1cc(NC(C)CCCN)c2nccc(C)c2c1Oc1cccc(C(F)(F)F)c1.O=C(O)CCC(=O)O` (centres unmarked) [Compound 1, 8-(4-Amino-1-methylbutylamino)-6-methoxy-4-methyl-5-(3-trifluoromethylphenoxy)quinoline Succinate], the “LD50 ratio Compound 1/Primaquine” value ([1]; guinea pigs, male) is reported as 3.22, the “% curative (radical curative)” value (Plasmodium cynomolgi [2]; 0.316 mg/kg/day) is reported as 100% and the “Radical curative activity relative to primaquine” value (Plasmodium cynomolgi [2]; in words) is reported as “markedly superior to primaquine”. For the same compound, the “Molar Primaquine Index CD 100” value (Plasmodium cynomolgi [2]; primaquine CD100 dose / drug CD100 dose, in moles) was 4.8, the LD50 (in vivo [3]; female) was 577 mg/kg and the LD50 (in vivo [3]; male) was 259 mg/kg. It also gave an LD50 (in vivo [4]) of 236 mg/kg.
In the case of `COc1cc(NC(C)CCCN)c2ncccc2c1` (centres unmarked) [Primaquine Diphosphate, 8-((4-amino-1-methylbutyl)amino)-6-methoxy-quinoline, reference compound], the LD50 ([1]; guinea pig, in vivo, po) is given as 54 mg/kg, the “Δ MST” value (Plasmodium berghei; 160 mg/kg, 5 mice, Table I) is given as 9 days and the Toxic deaths (Plasmodium berghei; 640 mg/kg, 5 mice, Table I) is given as 5T. For the same compound, the Suppressive activity (Plasmodium berghei; non-toxic dose levels, prior art comparison) was “very weak activity”, the Radical curative activity (Plasmodium cynomolgi [2]; 0.316 mg/kg/day) was “inactive” and the “Radical curative test, cures” value (Plasmodium cynomolgi [2]; 1.0 mg/kg salt, oral, × 7 days, Table IV B-1) was 1/2. For the same compound, the Monkeys cured (Plasmodium cynomolgi [2]; 1.3 mg/kg of salt per day for 7 days (1.0 mg/kg free base) with chloroquine) was “over 90%”, the mortality ([5]; 320 mg/kg × 1, s.c., five mice, Table III, read-out: Toxic (converted)) was 40% and the mortality ([5]; 640 mg/kg salt, s.c., Table IV A-1, read-out: Toxic deaths (converted)) was 100%. The Radical curative activity (Plasmodium cynomolgi [6]; 0.316 mg/kg, prior art comparison) was “inactive”, the “Radical curative activity, cures” value (Plasmodium cynomolgi [6]; 1.0 mg/kg (× 7), Table I) was 1/2 and the “% cures (radical curative)” value (Plasmodium cynomolgi [6]; 1.0 mg/kg) was 50%. The “% cures (radical curative)” value (Plasmodium cynomolgi [6]; 1.3 mg/kg) was 100%, the “Radical curative (tissue) activity” value ([7]; clinical use) was “effective in clearing the tissues of parasites” and the “Suppressive activity (blood schizonticide)” value ([7]; clinical use) was “relatively ineffective as a blood schizonticide”. The Toxicity in man ([7]; single curative dose) was “precludes administration of a single curative dose”.
